According to PMC10993450, “New benzimidazole derivative compounds with in vitro fasciolicidal properties” (Parasites & Vectors, 2024):
“Also recorded” adds a separate entry of the source. Where two headings read alike, the source gives them in different places.

Assays:
[1] = test system: Fasciola hepatica adults (ABZ-resistant isolate); assay: Adult viability test (AVT), motility inhibition; assay type: cell-based; details: 10 µM, ABZ-resistant isolate; for inhibition at 10 µM: Fasciola hepatica, relative to motility score at 24 h
Method: The adult viability test was based on a previous study carried out by Kirchhofer et al. with minor modifications. In brief, adult F. hepatica flukes were recovered from bile ducts of infected sheep with the resistant isolate. Flukes were quickly washed with 0.9% (w/v) NaCl and placed in six-well plates (Costar, Spain) with RPMI 1640 culture medium (Sigma-Aldrich®, Spain) supplemented with antibiotics (50 μg/mL streptomycin and 50 IU/mL penicillin; Sigma-Aldrich®, Spain) and 80 μg/mL of a hemin solution at 37 °C.
To monitor the anthelmintic effect of BZDs and the commercial drug ABZ, two flukes per well were incubated up to 72 h at a final concentration of 10 µM. DMSO at 0.5% was used as negative control. The individual movement of each fluke was examined using an inverted microscope at 24, 48, and 72 h. The activity of the compounds was estimated as motility inhibition, using a scale of fluke viability ranging from 3 (normal movements) to 0 (death, no movement observed for 2 min). All tests were repeated at least twice at different days.
Additionally, the percentage of motility inhibition for each compound was calculated from […] to 48 and 72 h after treatment using the following formula: 100 × (mean of the motility score of BZD at 24 h − mean of the motility score of BZD at 48 or 72 h)/(mean of the motility score of BZD at 24 h).
For the AVT, statistical analysis was performed using GraphPad Prism version 8.0.2. The normality of the motility inhibition scores was assessed using the Shapiro–Wilk test. Then, differences among scores at the three time points (24, 48, and 72 h) were evaluated using the Friedman test. In cases where significant differences were observed, post hoc analysis was conducted using the Nemenyi test for multiple comparisons. Comparisons with a P value < 0.05 were considered statistically significant.

Caco2 cells = test system: Caco2 cells; parameters: method as in doi:10.1016/j.molstruc.2022.133735; details: cited from earlier work
[2] = read-out: % Adult motility inhibition 48 h
[3] = read-out: % Adult motility inhibition 72 h

| Structure (SMILES) | Motility inhibition of adults after 72 h of incubation (in words; significance vs 24 h) [1] | inhibition at 10 µM [1, 2] [%] | inhibition at 10 µM [1, 3] [%] | CC50 (Caco2 cells) [µM] |
| --- | --- | --- | --- | --- |
| Cc1ccc2[nH]c(NCc3cccs3)nc2c1 [BZD31] | significant reduction | 35.7 | 38.1 | – |
| Cc1ccc2[nH]c(NC(=O)c3ccccc3)nc2c1 [BZD46] | nor those with ABZSO or BZD46, exhibited any significant motility inhibition | 28.6 | 28.6 | – |
| COc1ccc2[nH]c(NC(=O)c3ccccc3)nc2c1 [BZD56] | significant reduction | 53 | 51.5 | – |
| O=C(Nc1nc2cc(Cl)ccc2[nH]1)c1ccccc1 [BZD59] | high motility inhibition; also recorded: significant reduction; also recorded: most potent compound; also recorded: most significant reduction in worm motility | 46.7 | 60 | ~62 |
